The record followed here is US20250084071A1, “COMPOUNDS AND COMPOSITIONS FOR TREATING CONDITIONS ASSOCIATED WITH STING ACTIVITY” (NOVARTIS PHARMA AG, priority 2022, published 2025).

The target of this test is T1, STING (Homo sapiens, UniProt Q86WV6, G230A/H232R/R293Q/R71H).
T1 construct: host or cells: THP1-Dual KO-IFNAR2 cells
T1 sequence (Q86WV6 whole entry R71H/G230A/H232R/R293Q): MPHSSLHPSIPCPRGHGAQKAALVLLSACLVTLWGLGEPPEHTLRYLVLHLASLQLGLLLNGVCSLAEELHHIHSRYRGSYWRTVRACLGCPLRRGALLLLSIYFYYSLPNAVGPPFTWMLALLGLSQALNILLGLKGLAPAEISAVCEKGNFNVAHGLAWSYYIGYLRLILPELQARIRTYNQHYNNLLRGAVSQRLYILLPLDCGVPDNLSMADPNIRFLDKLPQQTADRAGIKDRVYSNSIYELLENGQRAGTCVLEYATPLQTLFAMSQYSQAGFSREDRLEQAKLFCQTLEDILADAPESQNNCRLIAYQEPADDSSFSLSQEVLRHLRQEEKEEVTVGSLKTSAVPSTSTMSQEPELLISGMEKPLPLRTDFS
Description: STING reporter assay in THP1-Dual KO-IFNAR2 cells (luciferase reporter, 2′3′cGAMP stimulation). The class given is cell-based. Particulars: 2′3′cGAMP 15 μM, 24 h, luciferase reporter activity, GeoMean, read-out: Pharmaron, THP1_IFNAR2 STING 24 h Luci Normalized: GeoMean EC50. The procedure: STING pathway activation by the compounds described herein was measured using THP1-Dual™ cells (KO-IFNAR2).
THP1-Dual™ KO-IFNAR2 Cells (obtained from invivogen) were maintained in RPMI, 10% FCS, 5 ml P/S, 2 mM L-glut, 10 mM Hepes, and 1 mM sodium pyruvate. Compounds were spotted in empty 384 well tissue culture plates (Greiner 781182) by Echo for a final concentration of 0.0017-100 μM. Cells were plated into the TC plates at 40 μL per well, 2×10E6 cells/mL. For activation with STING ligand, 2′3′cGAMP (MW 718.38, obtained from Invivogen), was prepared in Optimem media.
The following solutions were prepared for each 1×384 plate: • Solution A: 2 mL Optimem with one of the following stimuli: • […] of 10 mM 2′3′cGAMP→150 μM stock • Solution B: 2 mL Optimem with 60 μL Lipofectamine 2000→Incubate 5 min at RT • 2 mL of solution A and 2 ml Solution B was mixed and incubated for 20 min at room temperature (RT). 20 μL of transfection solution (A+B) was added on top of the plated cells, with a final 2′3′cGAMP concentration of 15 μM. The plates were then centrifuged immediately at 340 g for 1 minute, after which they were incubated at 37° C., 5% CO2, >98% humidity for 24 h. Luciferase reporter activity was then measured. EC50 values were calculated by using standard methods known in the art.
Luciferase reporter assay: 10 μL of supernatant from the assay was transferred to white 384-plate with flat bottom and squared wells. One pouch of QUANTI-Luc™ Plus was dissolved in 25 mL of water. 100 μL of QLC Stabilizer per 25 mL of QUANTI-Luc™ Plus solution was added. 50 μL of QUANTI-Luc™ Plus/QLC solution per well was then added. Luminescence was measured on a Platereader (e.g., Spectramax I3X (Molecular Devices GF3637001)).
Luciferase reporter activity was then measured. EC50 values were calculated by using standard methods known in the art.
In general terms: In a reporter assay the amount or activity of a reporter protein is the signal.
Broadly, the EC50 is the concentration giving half of the maximal effect. As to `O=S(=O)(Nc1c[nH]c2ccc(CCOc3ccc(C(F)(F)F)cc3)cc12)c1cccc(Cl)n1` [Compound 104, 6-chloro-N-(5-(2-(4-(trifluoromethyl)phenoxy)ethyl)-1H-indol-3-yl)pyridine-2-sulfonamide], the EC50 was 200 to 1000 nM.
As for `O=S(=O)(Nc1c[nH]c2ccc(CCOc3ccc(C(F)(F)F)cc3)cc12)C1CCOCC1` [Compound 105, N-(5-(2-(4-(trifluoromethyl)phenoxy)ethyl)-1H-indol-3-yl)tetrahydro-2H-pyran-4-sulfonamide], the figure is 200 to 1000 nM; as for `O=S(=O)(CCC(F)(F)F)Nc1c[nH]c2ccc(CCOc3ccc(C(F)(F)F)cc3)cc12` [Compound 106, 3,3,3-trifluoro-N-(5-(2-(4-(trifluoromethyl)phenoxy)ethyl)-1H-indol-3-yl)propane-1-sulfonamide], 40 to 200 nM; as for `Cn1ccc(S(=O)(=O)Nc2c[nH]c3ccc(CCOc4ccc(C(F)(F)F)cc4)cc23)n1` [Compound 107, 1-methyl-N-(5-(2-(4-(trifluoromethyl)phenoxy)ethyl)-1H-indol-3-yl)-1H-pyrazole-3-sulfonamide], 200 to 1000 nM.
Take `O=S(=O)(CC1CCOCC1)Nc1c[nH]c2ccc(CCOc3ccc(C(F)(F)F)cc3)cc12` [Compound 108, 1-(tetrahydro-2H-pyran-4-yl)-N-(5-(2-(4-(trifluoromethyl)phenoxy)ethyl)-1H-indol-3-yl)methanesulfonamide]: the EC50 was in the range of 200 to 1000 nM.
The result for `COCCS(=O)(=O)Nc1c[nH]c2ccc(CCOc3ccc(C(F)(F)F)cc3)cc12` [Compound 109, 2-methoxy-N-(5-(2-(4-(trifluoromethyl)phenoxy)ethyl)-1H-indol-3-yl)ethane-1-sulfonamide] reads 200 to 1000 nM.
As for `Cn1cc(S(=O)(=O)Nc2c[nH]c3ccc(OCCc4ccc(C(F)(F)F)cc4)cc23)cn1` [Compound 110, 1-methyl-N-(5-(4-(trifluoromethyl)phenethoxy)-1H-indol-3-yl)-1H-pyrazole-4-sulfonamide], the figure is 40 to 200 nM.
The result for `Cn1cnc(S(=O)(=O)Nc2c[nH]c3ccc(CCOc4ccc(C(F)(F)F)cc4)cc23)c1` [Compound 111, 1-methyl-N-(5-(2-(4-(trifluoromethyl)phenoxy)ethyl)-1H-indol-3-yl)-1H-imidazole-4-sulfonamide] reads 200 to 1000 nM; that for `O=S(=O)(CCC1CC1)Nc1c[nH]c2ccc(CCOc3ccc(C(F)(F)F)cc3)cc12` [Compound 112, 2-cyclopropyl-N-(5-(2-(4-(trifluoromethyl)phenoxy)ethyl)-1H-indol-3-yl)ethane-1-sulfonamide], 200 to 1000 nM.
`CCS(=O)(=O)Nc1c[nH]c2ccc(CCOc3ccc(C(F)(F)F)cc3)cc12` [Compound 113, N-(5-(2-(4-(trifluoromethyl)phenoxy)ethyl)-1H-indol-3-yl)ethanesulfonamide]: the EC50 lay within 200 to 1000 nM.
As to `O=S(=O)(CC1CCC1)Nc1c[nH]c2ccc(CCOc3ccc(C(F)(F)F)cc3)cc12` [Compound 114, 1-cyclobutyl-N-(5-(2-(4-(trifluoromethyl)phenoxy)ethyl)-1H-indol-3-yl)methanesulfonamide], the EC50 was 200 to 1000 nM.
The result for `O=S(=O)(Nc1c[nH]c2ccc(OCCc3ccc(C(F)(F)F)cc3)cc12)C1CCOCC1` [Compound 115, N-(5-(4-(trifluoromethyl)phenethoxy)-1H-indol-3-yl)tetrahydro-2H-pyran-4-sulfonamide] reads 200 to 1000 nM.
As to `Cn1ccc(S(=O)(=O)Nc2c[nH]c3ccc(OCCc4ccc(C(F)(F)F)cc4)cc23)n1` [Compound 116, 1-methyl-N-(5-(4-(trifluoromethyl)phenethoxy)-1H-indol-3-yl)-1H-pyrazole-3-sulfonamide], the EC50 lay within 200 to 1000 nM.
The result for `O=S(=O)(CC1CCCO1)Nc1c[nH]c2ccc(OCCc3ccc(C(F)(F)F)cc3)cc12` (centres unmarked) [Compound 117, 1-(tetrahydrofuran-2-yl)-N-(5-(4-(trifluoromethyl)phenethoxy)-1H-indol-3-yl)methanesulfonamide] reads 200 to 1000 nM; that for `Cn1cnc(S(=O)(=O)Nc2c[nH]c3ccc(OCCc4ccc(C(F)(F)F)cc4)cc23)c1` [Compound 118, 1-methyl-N-(5-(4-(trifluoromethyl)phenethoxy)-1H-indol-3-yl)-1H-imidazole-4-sulfonamide], 200 to 1000 nM.
As for `O=S(=O)(CC1CCC1)Nc1c[nH]c2ccc(OCCc3ccc(C(F)(F)F)cc3)cc12` [Compound 119, 1-cyclobutyl-N-(5-(4-(trifluoromethyl)phenethoxy)-1H-indol-3-yl)methanesulfonamide], the figure is 40 to 200 nM.
As for `O=S(=O)(CCC(F)(F)F)Nc1c[nH]c2ccc(OCCc3ccc(C(F)(F)F)cc3)cc12` [Compound 120, 3,3,3-trifluoro-N-(5-(4-(trifluoromethyl)phenethoxy)-1H-indol-3-yl)propane-1-sulfonamide], the figure is 200 to 1000 nM; as for `CCS(=O)(=O)Nc1c[nH]c2ccc(OCCc3ccc(C(F)(F)F)cc3)cc12` [Compound 121, N-(5-(4-(trifluoromethyl)phenethoxy)-1H-indol-3-yl)ethanesulfonamide], 200 to 1000 nM.
Regarding `O=S(=O)(Cc1ccccc1)Nc1c[nH]c2ccc(OCCc3ccc(C(F)(F)F)cc3)cc12` [Compound 122, 1-phenyl-N-(5-(4-(trifluoromethyl)phenethoxy)-1H-indol-3-yl)methanesulfonamide], the EC50 was in the range of 40 to 200 nM.
The result for `COCCS(=O)(=O)Nc1c[nH]c2ccc(OCCc3ccc(C(F)(F)F)cc3)cc12` [Compound 123, 2-methoxy-N-(5-(4-(trifluoromethyl)phenethoxy)-1H-indol-3-yl)ethane-1-sulfonamide] reads 200 to 1000 nM; that for `O=S(=O)(CC1CC1)Nc1c[nH]c2ccc(OCCc3ccc(C(F)(F)F)cc3)cc12` [Compound 124, 1-cyclopropyl-N-(5-(4-(trifluoromethyl)phenethoxy)-1H-indol-3-yl)methanesulfonamide], 40 to 200 nM.
As for `O=S(=O)(CC1CCCO1)Nc1c[nH]c2ccc(CCOc3ccc(C(F)(F)F)cc3)cc12` (centres unmarked) [Compound 125, 1-(tetrahydrofuran-2-yl)-N-(5-(2-(4-(trifluoromethyl)phenoxy)ethyl)-1H-indol-3-yl)methanesulfonamide], the EC50 fell in the range of 200 to 1000 nM.
As for `O=S(=O)(CC1CC1)Nc1c[nH]c2ccc(CCOc3ccc(C(F)(F)F)cc3)cc12` [Compound 126, 1-cyclopropyl-N-(5-(2-(4-(trifluoromethyl)phenoxy)ethyl)-1H-indol-3-yl)methanesulfonamide], the figure is 200 to 1000 nM.
